# Measured values: PMC11020753, “Contribution of amino acids in the active site of dipeptidyl peptidase 4 to the catalytic action of the enzyme” (PLOS ONE, 2024)
# Read-outs that look alike come from different tables or passages of the source. Non-standard residues stand in square brackets, D forms with d. Residues, ends and D or L forms follow the SMILES beside them. *: point of attachment. AMC = Cc1cc(=O)oc2cc(N*)ccc12; Tle = CC(C)(C)[C@H](N)C(=O)O
# What was measured:
# Assay type in all cases: biochemical
# [1] = target: T1, DP4 variant E205A (Homo sapiens, UniProt P27487, E205A); experiment: IC50 determination with substrate Gly-Pro-AMC; conditions: 100 mM HEPES-buffer (pH 7.6), T = 30 °C, substrate Gly-Pro-AMC in the range of Km
# T1 construct: His(6)-37-766 hDP4 containing fractions were concentrated to 1 ml as described above; His6 (N); made in house; host or cells: Pichia pastoris X-33, vector pPICZα C (secreted)
# T1 sequence (P27487 37-766 E205A): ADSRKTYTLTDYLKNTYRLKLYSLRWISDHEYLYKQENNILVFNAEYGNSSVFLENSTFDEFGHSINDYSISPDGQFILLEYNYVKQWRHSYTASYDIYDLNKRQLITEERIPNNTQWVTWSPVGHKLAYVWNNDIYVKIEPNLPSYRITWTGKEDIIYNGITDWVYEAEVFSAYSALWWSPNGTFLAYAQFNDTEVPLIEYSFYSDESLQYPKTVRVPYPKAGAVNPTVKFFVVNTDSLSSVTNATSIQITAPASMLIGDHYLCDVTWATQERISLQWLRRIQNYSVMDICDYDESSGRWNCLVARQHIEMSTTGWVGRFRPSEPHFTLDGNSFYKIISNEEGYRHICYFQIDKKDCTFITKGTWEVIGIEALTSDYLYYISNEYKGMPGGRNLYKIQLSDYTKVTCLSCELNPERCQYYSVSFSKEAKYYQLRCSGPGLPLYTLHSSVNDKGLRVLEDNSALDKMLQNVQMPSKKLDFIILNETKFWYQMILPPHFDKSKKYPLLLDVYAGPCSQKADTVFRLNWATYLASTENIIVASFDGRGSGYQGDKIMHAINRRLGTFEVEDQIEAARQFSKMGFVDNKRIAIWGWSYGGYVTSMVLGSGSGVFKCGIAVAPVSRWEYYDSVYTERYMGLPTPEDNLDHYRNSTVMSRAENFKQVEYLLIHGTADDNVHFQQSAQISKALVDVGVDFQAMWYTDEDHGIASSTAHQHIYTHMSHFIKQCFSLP
# Procedure: (§1) The reactions were performed in 100 mM HEPES buffer, pH 7.6 at 30°C in a total assay volume of 270 μl by using 96-well plates. […] Fluorescence was detected with a […]luor Plus (TECAN) at an excitation wavelength of 380 nm and an emission wavelength of 465 nm.
# [2] = target: T2, DP4 variant N710A (Homo sapiens, UniProt P27487, N710A); experiment: IC50 determination with substrate Gly-Pro-AMC; conditions: 100 mM HEPES-buffer (pH 7.6), T = 30 °C, substrate Gly-Pro-AMC in the range of Km
# T2 construct: His(6)-37-766 hDP4 containing fractions were concentrated to 1 ml; made in house; host or cells: Pichia pastoris X-33 (vector pPICZα C, secreted)
# T2 sequence (P27487 37-766 N710A): as the sequence (P27487 37-766 E205A) above, with A169E, N674A counted along it
# Procedure: as §1
# [3] = target: T3, wild type DP4 (Homo sapiens, UniProt P27487); experiment: IC50 determination with substrate Gly-Pro-AMC; conditions: 100 mM HEPES-buffer (pH 7.6), T = 30 °C, substrate Gly-Pro-AMC in the range of Km
# T3 construct: His(6)-37-766 hDP4 containing fractions were concentrated to 1 ml; made in house; host or cells: Pichia pastoris X-33 (vector pPICZα C, secreted)
# T3 sequence (P27487 37-766): as the sequence (P27487 37-766 E205A) above, with A169E counted along it
# Procedure: as §1
# [4] = target: T4, DP4 variant R125A (Homo sapiens, UniProt P27487, R125A); experiment: IC50 determination with substrate Gly-Pro-AMC; conditions: 100 mM HEPES-buffer (pH 7.6), T = 30 °C, substrate Gly-Pro-AMC in the range of Km
# T4 construct: His(6)-37-766 hDP4 containing fractions were concentrated to 1 ml; made in house; host or cells: Pichia pastoris X-33 (vector pPICZα C, secreted)
# T4 sequence (P27487 37-766 R125A): as the sequence (P27487 37-766 E205A) above, with R89A, A169E counted along it
# Procedure: as §1
# [5] = target: T5, DP4 variant N710Q (Homo sapiens, UniProt P27487, N710Q); experiment: IC50 determination with substrate Gly-Pro-AMC; conditions: bounds given in mM, 100 mM HEPES-buffer (pH 7.6), T = 30 °C, substrate Gly-Pro-AMC in the range of Km
# T5 construct: His(6)-37-766 hDP4 containing fractions were concentrated to 1 ml; made in house; host or cells: Pichia pastoris X-33 (vector pPICZα C, secreted)
# T5 sequence (P27487 37-766 N710Q): as the sequence (P27487 37-766 E205A) above, with A169E, N674Q counted along it
# Procedure: as §1
# [6] = target: T6, DP4 variant E206A (Homo sapiens, UniProt P27487, E206A); experiment: IC50 determination with substrate Gly-Pro-AMC; conditions: bounds given in mM, 100 mM HEPES-buffer (pH 7.6), T = 30 °C, substrate Gly-Pro-AMC in the range of Km
# T6 construct: His(6)-37-766 hDP4 containing fractions were concentrated to 1 ml as described above; His6 (N); made in house; host or cells: Pichia pastoris X-33, vector pPICZα C (secreted)
# T6 sequence (P27487 37-766 E206A): as the sequence (P27487 37-766 E205A) above, with A169E, E170A counted along it
# Procedure: as §1
# [7] = target: T7, DP4 variant N710D (Homo sapiens, UniProt P27487, N710D); experiment: IC50 determination with substrate Gly-Pro-AMC; conditions: 100 mM HEPES-buffer (pH 7.6), T = 30 °C, substrate Gly-Pro-AMC in the range of Km
# T7 construct: His(6)-37-766 hDP4 containing fractions were concentrated to 1 ml; made in house; host or cells: Pichia pastoris X-33 (vector pPICZα C, secreted)
# T7 sequence (P27487 37-766 N710D): as the sequence (P27487 37-766 E205A) above, with A169E, N674D counted along it
# Procedure: as §1
# [8] = target: T8, DP4 variant R125K (Homo sapiens, UniProt P27487, R125K); experiment: IC50 determination with substrate Gly-Pro-AMC; conditions: 100 mM HEPES-buffer (pH 7.6), T = 30 °C, substrate Gly-Pro-AMC in the range of Km
# T8 construct: His(6)-37-766 hDP4 containing fractions were concentrated to 1 ml; made in house; host or cells: Pichia pastoris X-33 (vector pPICZα C, secreted)
# T8 sequence (P27487 37-766 R125K): as the sequence (P27487 37-766 E205A) above, with R89K, A169E counted along it
# Procedure: as §1
# [9] = target: T5, DP4 variant N710Q; experiment: Hydrolysis of dipeptide-AMC substrates (fluorescence)
# Procedure: The reactions were performed in 100 mM HEPES buffer, pH 7.6 at 30°C in a total assay volume of 270 μl by using 96-well plates. […] Fluorescence was detected with a [sequence]luor Plus (TECAN) at an excitation wavelength of 380 nm and an emission wavelength of 465 nm.
# [10] = target: T7, DP4 variant N710D; experiment: as above; conditions: substrate hydrolysis, 100 mM HEPES-buffer (pH 7.6), T = 30 °C
# [11] = target: T1, DP4 variant E205A; experiment: as above; conditions: substrate hydrolysis, 100 mM HEPES-buffer (pH 7.6), T = 30 °C
# Procedure: as §1
# [12] = target: T2, DP4 variant N710A; experiment: as above; conditions: for Km / kcat: N710A, substrate hydrolysis, 100 mM HEPES-buffer (pH 7.6), T = 30 °C
# Procedure: as §1
# [13] = target: T3, wild type DP4; experiment: as above; conditions: substrate hydrolysis, 100 mM HEPES-buffer (pH 7.6), T = 30 °C
# Procedure: as §1
# [14] = target: T4, DP4 variant R125A; experiment: as above; conditions: substrate hydrolysis, 100 mM HEPES-buffer (pH 7.6), T = 30 °C
# Procedure: as §1
# [15] = target: T6, DP4 variant E206A; experiment: as above; conditions: substrate hydrolysis, 100 mM HEPES-buffer (pH 7.6), T = 30 °C
# Procedure: as §1
# [16] = target: T8, DP4 variant R125K; experiment: as above; conditions: substrate hydrolysis, 100 mM HEPES-buffer (pH 7.6), T = 30 °C
# Procedure: as §1
# [17] = target: T1, DP4 variant E205A; experiment: Cleavage of peptide hormones by MALDI-TOF mass spectrometry; conditions: T = 37 °C, 100 mM Tris-HCl, pH 7.6, substrate concentration 25 μM
# Procedure: (§2) Enzyme concentration 5 x 10^−9 M, substrate concentration 25 μM, reaction time 1–3 hours, depending on the respective hydrolysis rate. Reactions were stopped by addition of 1 volume DHAP/DAHC-matrix, dissolved in 50% (v/v) acetonitrile, after certain time points. The matrix-sample mixture was placed in a vacuum, which caused the proteins to crystallize together with the matrix. Using the mass spectrometer "LD-TOF System G2025" from Hewlett Packard, the relative amount of substrate and respective product peaks in the samples could be determined. Relative hydrolysis rates were depicted by plotting relative substrate concentration against time.
# [18] = target: T2, DP4 variant N710A; experiment: as above; conditions: T = 37 °C, 100 mM Tris-HCl, pH 7.6, substrate concentration 25 μM
# Procedure: as §2
# [19] = target: T4, DP4 variant R125A; experiment: as above; conditions: T = 37 °C, 100 mM Tris-HCl, pH 7.6, substrate concentration 25 μM
# Procedure: as §2
# [20] = target: T5, DP4 variant N710Q; experiment: as above; conditions: T = 37 °C, 100 mM Tris-HCl, pH 7.6, substrate concentration 25 μM
# Procedure: as §2
# [21] = target: T6, DP4 variant E206A; experiment: as above; conditions: T = 37 °C, 100 mM Tris-HCl, pH 7.6, substrate concentration 25 μM
# Procedure: as §2
# [22] = target: T7, DP4 variant N710D; experiment: as above; conditions: T = 37 °C, 100 mM Tris-HCl, pH 7.6, substrate concentration 25 μM
# Procedure: as §2
# [23] = target: T3, wild type DP4; experiment: as above; design: key: +++: hydrolysis is comparable with the data obtained from the wild type enzyme; -: hydrolysis below 0,01% of the wild type enzyme; conditions: T = 37 °C, 100 mM Tris-HCl, pH 7.6, substrate concentration 25 μM
# Procedure: as §2
# [24] = target: T8, DP4 variant R125K; experiment: as above; design: key: +++: hydrolysis is comparable with the data obtained from the wild type enzyme; -: hydrolysis below 0,01% of the wild type enzyme; conditions: T = 37 °C, 100 mM Tris-HCl, pH 7.6, substrate concentration 25 μM
# Procedure: as §2
# [25] = N710Q, substrate hydrolysis, 100 mM HEPES-buffer (pH 7.6), T = 30 °C
"kcat [9, 25]",kcat [10],Km [11],kcat [11],Km [12],kcat [12],Km [13],kcat [13],Km [14],kcat [14],kcat [15],Km [16],kcat [16],Compound,also measured
–,–,–,–,–,–,–,–,–,–,–,–,–,"CC[C@H](C)[C@H](NC(=O)[C@@H]1CCCN1C(=O)[C@@H](N)C(C)(C)C)C(N)=O [t-Bu-Gly-Pro-Ile-NH2, t-Butyl-Gly-Pro-Ile-NH2] (H-[Tle]-Pro-Ile-NH2)",IC50 [1]: 1300 µM; IC50 [2]: 140 µM; IC50 [3]: 6.7 µM; IC50 [4]: 80 µM; IC50 [5]: > 10 mM; IC50 [6]: > 10 mM; IC50 [7]: 400 µM; IC50 [8]: 53 µM
0.23 ± 0.01 s⁻¹,19 ± 0.6 s⁻¹,240 µM,17 ± 0.2 s⁻¹,1700 µM,0.74 ± 0.03 s⁻¹,19 µM,32 ± 0.9 s⁻¹,37 µM,48 ± 1.0 s⁻¹,0.8 ± 0.05 s⁻¹,38 µM,37 ± 0.5 s⁻¹,Cc1cc(=O)oc2cc(NC(=O)[C@@H]3CCCN3C(=O)[C@H](C)N)ccc12 [Ala-Pro-AMC] (H-Ala-Pro-{AMC}),Change of Km-value in comparison to the wild type enzyme (decreased) ([9]; N710Q vs wild type): 100 fold; Drop of kcat-value in comparison to the wild type enzyme ([9]; N710Q vs wild type): ~30 factor; Change of Km-value in comparison to the wild type enzyme (decreased) ([12]; N710A vs wild type): 100 fold; Drop of kcat-value in comparison to the wild type enzyme ([12]; N710A vs wild type): ~30 factor; Km ([15]; read-out: Km): 3400 µM
–,–,–,–,–,–,–,–,–,–,–,–,–,"PACAP38: physiological DP4 substrate, peptide hormone, serine in P1 position (H2N-H-S-Q…)","Hydrolysis of peptide hormone in comparison to the DP4 wild type enzyme [17]: - (hydrolysis below 0,01% of the wild type enzyme); Hydrolysis of peptide hormone in comparison to the DP4 wild type enzyme [18]: - (hydrolysis below 0,01% of the wild type enzyme); Hydrolysis of peptide hormone in comparison to the DP4 wild type enzyme [19]: - (hydrolysis below 0,01% of the wild type enzyme); Hydrolysis of peptide hormone in comparison to the DP4 wild type enzyme [20]: - (hydrolysis below 0,01% of the wild type enzyme); Hydrolysis of peptide hormone in comparison to the DP4 wild type enzyme [21]: - (hydrolysis below 0,01% of the wild type enzyme); Hydrolysis of peptide hormone in comparison to the DP4 wild type enzyme [22]: - (hydrolysis below 0,01% of the wild type enzyme); Hydrolysis of peptide hormone in comparison to the DP4 wild type enzyme [23]: +++; Hydrolysis of peptide hormone in comparison to the DP4 wild type enzyme [24]: - (hydrolysis below 0,01% of the wild type enzyme)"
No hydrolysis at concentrations < 10 mM,0.05 ± 0.003 s⁻¹,4700 µM,0.15 ± 0.015 s⁻¹,410 µM,(9.4 ± 0.06) · 10^−3 s^−1,550 µM,5.7 ± 0.18 s⁻¹,710 µM,2.3 ± 0.08 s⁻¹,No hydrolysis at concentrations < 10 mM,1500 µM,2.6 ± 0.09 s⁻¹,Cc1cc(=O)oc2cc(NC(=O)[C@H](C)NC(=O)[C@H](C)N)ccc12 [Ala-Ala-AMC] (H-Ala-Ala-{AMC}),"Km [9, 25]: No hydrolysis at concentrations < 10 mM; Km [10]: 1800 µM; Km [15]: No hydrolysis at concentrations < 10 mM"
